From article PMC7936271, “Discovery and characterization of bromodomain 2–specific inhibitors of BRDT” (Proceedings of the National Academy of Sciences of the …, 2021)
Values joined by “and” are separate entries in the source; they are usually repeats but may differ in a detail not shown here. Identical values can stand only once. “Also recorded” adds a separate entry of the source. Like-named read-outs stand apart in the source and are kept apart here.

Columns and labels:
[1] = biological target: BRDT-BD1
[2] = biological target: BRDT-BD2
[3] = biological target: BRDT-BD2 (Homo sapiens, UniProt Q58F21); assay: AlphaScreen competition assay with biotinylated JQ1, BRDT-BD2; assay type: binding; parameters: BRDT-BD2, NP_001717.3 amino acid 269− 380; made in house; host or cells: E. coli NiCo21 (DE3); conditions: for BRDT-BD2 activity / affinity: result in words
[4] = Metabolic stability assay in human liver microsomes; assay type: in vitro ADME; conditions: for half-life at 2 μM / t1/2, min HLM: human liver microsomes, 37 °C, data >60 min are an extrapolated estimate, 2.0 μM; for half-life at 2 μM: read-out: t1/2, min HLM
Experimental: (§1) 2d) Metabolic stability assay in liver microsomes. […]
(§2) The reactions are terminated by adding equivalent
(§3) volume of ice-cold CH3OH and vortexed.
(§4) temperature was ma i ntained at 40 °C.
(§5) (acetonitrile containing 0.1% formic acid). […]

[5] = biological target: BRD4-BD1
[6] = biological target: BRD4-BD2 (Homo sapiens, UniProt O60885); assay: AlphaScreen competition assay with biotinylated JQ1, BRD4-BD2; assay type: binding; parameters: BD2, NP_055114.1 amino acid 333− 460; made in house; host or cells: E. coli NiCo21 (DE3)
[7] = biological target: T1, BRD4-BD1 (Homo sapiens, UniProt O60885); assay: AlphaScreen competition assay with biotinylated JQ1, BRD4-BD1; assay type: binding
T1 construct: amino acid 44− 168; made in house; host or cells: E. coli NiCo21 (DE3)

[8] = biological target: BRD4-BD2
[9] = biological target: T2, BRDT-BD1 (Homo sapiens, UniProt Q58F21); assay: AlphaScreen competition assay with biotinylated JQ1, BRDT-BD1; assay type: binding; conditions: for inhibition at 10 µM: read-out: Inhibition at 10 µM for BRDT-BD1
T2 construct: NP_001717.3 amino acid 21− 137; made in house; host or cells: E. coli NiCo21 (DE3)

[10] = Metabolic stability assay in mouse liver microsomes; assay type: in vitro ADME; conditions: for half-life at 2 μM / t1/2, min MLM: mouse liver microsomes, 37 °C, data >60 min are an extrapolated estimate, 2.0 μM; for half-life at 2 μM: read-out: t1/2, min MLM; for mouse microsomal stability: result in words
Experimental: as §1, §2, §3, §4, §5

[11] = ratio of AlphaScreen IC50 values
[12] = AlphaScreen, biotinylated JQ1 as ligand
[13] = AlphaScreen, biotinylated JQ1 as ligand, NE: no effect at 20 µM

CC(=O)Nc1cc(NC(=O)c2ccc3c(c2)c(-c2ccc(N)nc2)nn3C(C)C)ccc1C
IC50 [1]: > 10 µM
IC50 [2]: 0.253 µM

CC(=O)Nc1cc(NC(=O)c2ccc3c(c2)c(-c2cnc(N)cc2C)nn3C)ccc1C
IC50 [2]: 0.126 µM

CCn1nc(-c2ccc(N)nc2)c2cc(C(=O)Nc3ccc(C)c(NC(C)=O)c3)ccc21
IC50 [1]: > 10 µM
IC50 [2]: 0.079 µM

CNC(=O)c1ccc(C(=O)Nc2cc(NC(=O)c3ccc4c(c3)c(-c3ccc(C)cc3C)nn4C)ccc2OC)cc1
IC50 [2]: 0.026 µM

CNC(=O)c1ccc(C(=O)Nc2cc(NC(=O)c3ccc4c(c3)c(-c3ccc(N)cc3)nn4C)ccc2OC)cc1
IC50 [1]: > 10 µM
IC50 [2]: 0.015 µM

CNC(=O)c1ccc(C(=O)Nc2cc(NC(=O)c3ccc4c(c3)c(-c3ccc(N)cc3C)nn4C)ccc2OC)cc1
IC50 [1]: > 10 µM
IC50 [2]: 0.012 µM

CNC(=O)c1ccc(C(=O)Nc2cc(NC(=O)c3ccc4c(c3)c(-c3ccc(OC)cc3)nn4C)ccc2C)cc1
IC50 [1]: > 10 µM
IC50 [2]: 0.521 µM

CNC(=O)c1ccc(C(=O)Nc2cc(NC(=O)c3ccc4c(c3)c(-c3ccccc3C)nn4C)ccc2OC)cc1
IC50 [1]: 6.3 µM
IC50 [2]: 0.061 µM

COc1ccc(NC(=O)c2ccc3c(c2)c(-c2cc4ccccc4n2C)nn3C)c(C)c1
IC50 [2]: 0.183 µM

COc1ccc(NC(=O)c2ccc3c(c2)c(-c2cc4ccccc4n2C)nn3C)c(Cl)c1
IC50 [2]: > 1.25 µM

COc1ccc(NC(=O)c2ccc3c(c2)c(-c2cc4ccccc4n2C)nn3C)c(F)c1
IC50 [2]: 0.203 µM

COc1ccc(NC(=O)c2ccc3c(c2)c(-c2cc4ccccc4n2C)nn3C)c(OC)c1
IC50 [2]: 0.926 µM

COc1ccc(NC(=O)c2ccc3c(c2)c(-c2cc4ccccc4n2C)nn3C)cc1
IC50 [2]: 0.121 µM

COc1ccc(NC(=O)c2ccc3c(c2)c(-c2cc4ccccc4n2C)nn3C)cc1C
IC50 [2]: 0.111 µM

COc1ccc(NC(=O)c2ccc3c(c2)c(-c2cc4ccccc4n2C)nn3C)cc1Cl
IC50 [2]: 0.164 µM

COc1ccc(NC(=O)c2ccc3c(c2)c(-c2cc4ccccc4n2C)nn3C)cc1F
IC50 [2]: 0.119 µM

COc1ccc(NC(=O)c2ccc3c(c2)c(-c2cc4ccccc4n2C)nn3C)cc1OC
IC50 [2]: 0.101 µM

COc1ccc(NC(=O)c2ccc3c(c2)c(-c2ccc(N)cc2C)nn3C)cc1NC(=O)c1ccccc1
IC50 [2]: 0.035 µM

Cc1cc(N)ccc1-c1nn(C)c2ccc(C(=O)Nc3ccccc3)cc12
IC50 [1]: > 10 µM
IC50 [2]: 0.09 µM

CNC(=O)c1ccc(C(=O)Nc2cc(NC(=O)c3ccc4c(c3)c(-c3cc5ccccc5n3C)nn4C)ccc2OC)cc1 [Compound 3]
BRDT-BD2 activity / affinity ([3]; AlphaScreen): low nanomolar affinity
IC50 [2]: 0.022 µM

CNC(=O)c1ccc(C(=O)Nc2cc(NC(=O)c3ccc4c(c3)c(-c3cc5ccccc5n3C)nn4C)ccc2C)cc1 [Compound 8]
half-life at 2 μM [4]: 2.5 h
IC50 [5]: 26.2 µM
IC50 [6]: 31 nM
BRD4-BD2 vs. BRD4-BD1 (BRD4-BD2 selectivity) [6, 11]: 850
IC50 [7]: 26200 nM
IC50 [3]: 13 nM
BRDT-BD2 activity / affinity ([3]; AlphaScreen): low nanomolar affinity
BRDT-BD2 vs. BRD4-BD2 [3, 11]: 2.4
BRDT-BD2 vs. BRDT-BD1 (BRDT-BD2 selectivity) [3, 11]: >750
IC50 [8]: 0.031 µM
IC50 [9]: > 10000 nM
inhibition at 10 µM [9]: 11%
% inhibition at 10 µM [1]: 11%
IC50 [1]: > 10 µM
IC50 [2]: 0.013 µM
half-life at 2 μM [10]: 0.85 h

CNC(=O)c1ccc(C(=O)Nc2cc(NC(=O)c3ccc4c(c3)c(-c3ccc(N)nc3)nn4C)ccc2C)cc1 [Compound 10]
half-life at 2 μM [4]: 4 h
human microsomal stability ([4]; result in words): high metabolic stability
% inhibition at 10 µM [5]: 20%
IC50 [5]: > 10 µM
IC50 [6]: 46 nM
BRD4-BD2 vs. BRD4-BD1 (BRD4-BD2 selectivity) [6, 11]: >210
IC50 [7]: > 10000 nM
inhibition at 10 µM ([7]; read-out: Inhibition at 10 µM for BRD4-BD1): 20%
IC50 [3]: 17 nM
BRDT-BD2 activity / affinity ([3]; AlphaScreen): slightly lower affinity than CDD-1102
BRDT-BD2 vs. BRD4-BD2 [3, 11]: 2.7
BRDT-BD2 vs. BRDT-BD1 (BRDT-BD2 selectivity) [3, 11]: >600
IC50 [8]: 0.046 µM
inhibition at 10 µM [9]: 16%
% inhibition at 10 µM [1]: 16%
IC50 [1]: > 10 µM
IC50 [2]: 0.017 µM
half-life at 2 μM [10]: 3.17 h
mouse microsomal stability [10]: high metabolic stability; also recorded: high mouse microsomal stability

CNC(=O)c1ccc(C(=O)Nc2cc(NC(=O)c3ccc4c(c3)c(-c3ccncc3)nn4C)ccc2C)cc1 [Compound 12]
BRDT-BD2 activity / affinity ([3]; AlphaScreen): weaker-binding
IC50 [2]: 0.978 µM

CNC(=O)c1ccc(C(=O)Nc2cc(NC(=O)c3ccc4c(c3)c(-c3cnc(N)nc3)nn4C)ccc2C)cc1 [Compound 13]
BRDT-BD2 activity / affinity ([3]; AlphaScreen): lower affinity than compound 10
IC50 [1]: > 10 µM
IC50 [2]: 0.139 µM

CNC(=O)c1ccc(C(=O)Nc2cc(NC(=O)c3ccc4c(c3)c(-c3ccc(N)nc3C)nn4C)ccc2C)cc1 [Compound 14]
BRDT-BD2 activity / affinity ([3]; AlphaScreen): lower affinity than compound 10
IC50 [2]: 0.094 µM

CNC(=O)c1ccc(C(=O)Nc2cc(NC(=O)c3ccc4c(c3)c(-c3cnc(N)cc3C)nn4C)ccc2C)cc1 [Compound 15]
t1/2, min HLM [4]: 3.67 h
BRD4-BD2 vs. BRD4-BD1 (BRD4-BD2 selectivity) [6]: >140
IC50 [6, 12]: 140 nM
IC50 [7, 13]: > 20000 nM
IC50 [3, 12]: 22 nM
BRDT-BD2 activity / affinity ([3]; AlphaScreen): lower affinity than compound 10
BRDT-BD2 vs. BRD4-BD2 ([3]; ratio of AlphaScreen IC50 values, listed as 15 (CDD-1349)): 6.4
BRDT-BD2 vs. BRD4-BD2 ([3]; ratio of AlphaScreen IC50 values, listed as CDD-1349): sixfold
IC50 [8]: 0.14 µM
IC50 [9, 13]: > 20000 nM
IC50 [2]: 0.022 µM
t1/2, min MLM [10]: 2.5 h
mouse microsomal stability [10]: high mouse microsomal stability

CC(=O)Nc1cc(NC(=O)c2ccc3c(c2)c(-c2ccc(N)nc2)nn3C)ccc1C [Compound 17]
t1/2, min HLM [4]: 8.17 h
IC50 [5]: 25.1 µM
BRD4-BD2 vs. BRD4-BD1 (BRD4-BD2 selectivity) [6]: 490
IC50 [6, 12]: 51 nM
IC50 [7, 13]: 25100 nM
BRDT-BD2 vs. BRDT-BD1 (BRDT-BD2 selectivity) [3]: 770
IC50 [3, 12]: 47 nM
BRDT-BD2 vs. BRD4-BD2 [3, 11]: 1.1
IC50 [8]: 0.051 µM
IC50 [9, 13]: 36200 nM
IC50 [1]: > 10 µM and 36.2 µM
IC50 [2]: 0.047 µM
t1/2, min MLM [10]: 3.33 h
mouse microsomal stability [10]: high mouse microsomal stability

CC(=O)Nc1cccc(NC(=O)c2ccc3c(c2)c(-c2ccc(N)cc2C)nn3C)c1 [Compound 21]
t1/2, min HLM [4]: 3 h
IC50 [5]: 14.1 µM
BRD4-BD2 vs. BRD4-BD1 (BRD4-BD2 selectivity) [6]: 670
IC50 [6, 12]: 21 nM
IC50 [7, 13]: 14100 nM
BRDT-BD2 vs. BRDT-BD1 (BRDT-BD2 selectivity) [3]: 1,400
IC50 [3, 12]: 14 nM
BRDT-BD2 activity / affinity ([3]; AlphaScreen): minimal effects on potency
BRDT-BD2 vs. BRD4-BD2 [3, 11]: 1.5
IC50 [8]: 0.021 µM
IC50 [9, 13]: 19700 nM
IC50 [1]: > 10 µM and 19.7 µM
IC50 [2]: 0.014 µM
t1/2, min MLM [10]: 0.15 h

COc1ccc(NC(=O)c2ccc3c(c2)c(-c2ccc(N)cc2C)nn3C)cc1 [Compound 24]
BRDT-BD2 activity / affinity ([3]; AlphaScreen): dramatic loss of activity
IC50 [2]: 0.054 µM

COc1ccc(N(C)C(=O)c2ccc3c(c2)c(-c2ccc(N)cc2C)nn3C)cc1 [Compound 26]
BRDT-BD2 activity / affinity ([3]; AlphaScreen): loss of potency
IC50 [1]: > 10 µM
IC50 [2]: > 1 µM

COc1ccc(NC(=O)c2ccc3nn(C)c(-c4ccc(N)cc4C)c3c2)cc1 [Compound 27]
BRDT-BD2 activity / affinity ([3]; AlphaScreen): dramatic loss of activity; also recorded: inactivity
IC50 [1]: > 10 µM
IC50 [2]: 17.2 µM
